Measured values: PubChem BioAssay (NCI)
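GI50 = concentration required for 50% inhibition of growth. Definition used: TGI = concentration required for complete inhibition of growth.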

Legend:
Experiment in all cases: NCI tumour cell line growth inhibition, 384-well format
786-0 renal = test system: 786-0 renal
A498 renal = test system: A498 renal
A549 NSCLC = test system: A549 NSCLC
ACHN renal = test system: ACHN renal
BT-549 breast = test system: BT-549 breast
CAKI-1 renal = test system: CAKI-1 renal
CCRF-CEM leukemia = test system: CCRF-CEM leukemia
COLO 205 colon = test system: COLO 205 colon
DU-145 prostate = test system: DU-145 prostate
EKVX NSCLC = test system: EKVX NSCLC
HCC-2998 colon = test system: HCC-2998 colon
HCT-15 colon = test system: HCT-15 colon
HL-60(TB) leukemia = test system: HL-60(TB) leukemia
HOP-62 NSCLC = test system: HOP-62 NSCLC
HOP-92 NSCLC = test system: HOP-92 NSCLC
HS 578T breast = test system: HS 578T breast
HT29 colon = test system: HT29 colon
IGROV1 ovarian = test system: IGROV1 ovarian
K-562 leukemia = test system: K-562 leukemia
KM12 colon = test system: KM12 colon
LOX IMVI melanoma = test system: LOX IMVI melanoma
M14 melanoma = test system: M14 melanoma
MALME-3M melanoma = test system: MALME-3M melanoma
MCF7 breast = test system: MCF7 breast
MDA-MB-231 breast = test system: MDA-MB-231 breast
MDA-MB-435 melanoma = test system: MDA-MB-435 melanoma
MDA-MB-468 breast = test system: MDA-MB-468 breast
MOLT-4 leukemia = test system: MOLT-4 leukemia
NCI-H226 lung = test system: NCI-H226 lung
NCI-H23 lung = test system: NCI-H23 lung
NCI-H322M lung = test system: NCI-H322M lung
NCI-H460 NSCLC = test system: NCI-H460 NSCLC
NCI-H522 lung = test system: NCI-H522 lung
NCI/ADR-RES ovarian = test system: NCI/ADR-RES ovarian
OVCAR-3 ovarian = test system: OVCAR-3 ovarian
OVCAR-4 ovarian = test system: OVCAR-4 ovarian
OVCAR-5 ovarian = test system: OVCAR-5 ovarian
OVCAR-8 ovarian = test system: OVCAR-8 ovarian
PC-3 prostate = test system: PC-3 prostate
RPMI-8226 leukemia = test system: RPMI-8226 leukemia
RXF 393 renal = test system: RXF 393 renal
SF-268 CNS = test system: SF-268 CNS
SF-295 CNS = test system: SF-295 CNS
SF-539 CNS = test system: SF-539 CNS
SK-MEL-28 melanoma = test system: SK-MEL-28 melanoma
SK-MEL-5 melanoma = test system: SK-MEL-5 melanoma
SK-OV-3 ovarian = test system: SK-OV-3 ovarian
SN12C renal = test system: SN12C renal
SNB-19 CNS = test system: SNB-19 CNS
SNB-75 CNS = test system: SNB-75 CNS
SR leukemia = test system: SR leukemia
SW-620 colon = test system: SW-620 colon
T-47D breast = test system: T-47D breast
TK-10 renal = test system: TK-10 renal
UACC-257 melanoma = test system: UACC-257 melanoma
UACC-62 melanoma = test system: UACC-62 melanoma
UO-31 renal = test system: UO-31 renal

[2H]C([2H])([2H])NC(=O)c1nnc(NC(=O)C2CC2)cc1Nc1cccc(-c2ncn(C)n2)c1OC
GI50 ([…]-0 renal): 66.2 µM
TGI (786-0 renal): > 100 µM
GI50 (A498 renal): 6.3 µM
TGI (A498 renal): > 100 µM
GI50 (A549 NSCLC): 84.4 µM
TGI (A549 NSCLC): > 100 µM
GI50 (ACHN renal): 16.6 µM
TGI (ACHN renal): > 100 µM
GI50 (BT-549 breast): > 100 µM
TGI (BT-549 breast): > 100 µM
GI50 (CAKI-1 renal): 14.6 µM
TGI (CAKI-1 renal): > 100 µM
GI50 (CCRF-CEM leukemia): 16.6 µM
TGI (CCRF-CEM leukemia): 48.6 µM
GI50 (COLO 205 colon): > 100 µM
TGI (COLO 205 colon): > 100 µM
GI50 (DU-145 prostate): 16.4 µM
TGI (DU-145 prostate): > 100 µM
GI50 (EKVX NSCLC): > 100 µM
TGI (EKVX NSCLC): > 100 µM
GI50 (HCC-2998 colon): > 100 µM
TGI (HCC-2998 colon): > 100 µM
GI50 (HCT-15 colon): 12.9 µM
TGI (HCT-15 colon): > 100 µM
GI50 (HL-60(TB) leukemia): 10.9 µM
TGI (HL-60(TB) leukemia): 26.7 µM
GI50 (HOP-62 NSCLC): 25.1 µM
TGI (HOP-62 NSCLC): 84.9 µM
GI50 (HOP-92 NSCLC): 25.4 µM
TGI (HOP-92 NSCLC): > 100 µM
GI50 (HS 578T breast): 18 µM
TGI (HS 578T breast): > 100 µM
GI50 (HT29 colon): > 100 µM
TGI (HT29 colon): > 100 µM
GI50 (IGROV1 ovarian): 26.4 µM
TGI (IGROV1 ovarian): > 100 µM
GI50 (K-562 leukemia): 43.4 µM
TGI (K-562 leukemia): > 100 µM
GI50 (KM12 colon): 30.2 µM
TGI (KM12 colon): > 100 µM
GI50 (LOX IMVI melanoma): 25 µM
TGI (LOX IMVI melanoma): > 100 µM
GI50 (M14 melanoma): 22.8 µM
TGI (M14 melanoma): > 100 µM
GI50 (MALME-3M melanoma): 32.2 µM
TGI (MALME-3M melanoma): > 100 µM
GI50 (MCF7 breast): > 100 µM
TGI (MCF7 breast): > 100 µM
GI50 (MDA-MB-231 breast): 29.2 µM
TGI (MDA-MB-231 breast): > 100 µM
GI50 (MDA-MB-435 melanoma): > 100 µM
TGI (MDA-MB-435 melanoma): > 100 µM
GI50 (MDA-MB-468 breast): 13.3 µM
TGI (MDA-MB-468 breast): 42.3 µM
GI50 (MOLT-4 leukemia): 15.9 µM
TGI (MOLT-4 leukemia): 36.8 µM
GI50 (NCI-H226 lung): 43.9 µM
TGI (NCI-H226 lung): > 100 µM
GI50 (NCI-H23 lung): 43.7 µM
TGI (NCI-H23 lung): > 100 µM
GI50 (NCI-H322M lung): 23.3 µM
TGI (NCI-H322M lung): > 100 µM
GI50 (NCI-H460 NSCLC): 21.3 µM
TGI (NCI-H460 NSCLC): > 100 µM
GI50 (NCI-H522 lung): 79.1 µM
TGI (NCI-H522 lung): > 100 µM
GI50 (NCI/ADR-RES ovarian): 37.4 µM
TGI (NCI/ADR-RES ovarian): > 100 µM
GI50 (OVCAR-3 ovarian): 41.6 µM
TGI (OVCAR-3 ovarian): > 100 µM
GI50 (OVCAR-4 ovarian): > 100 µM
TGI (OVCAR-4 ovarian): > 100 µM
GI50 (OVCAR-5 ovarian): > 100 µM
TGI (OVCAR-5 ovarian): > 100 µM
GI50 (OVCAR-8 ovarian): 43.6 µM
TGI (OVCAR-8 ovarian): > 100 µM
GI50 (PC-3 prostate): 77.9 µM
TGI (PC-3 prostate): > 100 µM
GI50 (RPMI-8226 leukemia): 3.93 µM
TGI (RPMI-8226 leukemia): 27.6 µM
GI50 (RXF 393 renal): > 100 µM
TGI (RXF 393 renal): > 100 µM
GI50 (SF-268 CNS): > 100 µM
TGI (SF-268 CNS): > 100 µM
GI50 (SF-295 CNS): 33.2 µM
TGI (SF-295 CNS): > 100 µM
GI50 (SF-539 CNS): 79.2 µM
TGI (SF-539 CNS): > 100 µM
GI50 (SK-MEL-28 melanoma): 72.9 µM
TGI (SK-MEL-28 melanoma): > 100 µM
GI50 (SK-MEL-5 melanoma): 36.8 µM
TGI (SK-MEL-5 melanoma): > 100 µM
GI50 (SK-OV-3 ovarian): 5.93 µM
TGI (SK-OV-3 ovarian): 87.6 µM
GI50 (SN12C renal): 32.6 µM
TGI (SN12C renal): > 100 µM
GI50 (SNB-19 CNS): 87.4 µM
TGI (SNB-19 CNS): > 100 µM
GI50 (SNB-75 CNS): 87.9 µM
TGI (SNB-75 CNS): > 100 µM
GI50 (SR leukemia): 29.9 µM
TGI (SR leukemia): > 100 µM
GI50 (SW-620 colon): 93.5 µM
TGI (SW-620 colon): > 100 µM
GI50 (T-47D breast): > 100 µM
TGI (T-47D breast): > 100 µM
GI50 (TK-10 renal): > 100 µM
TGI (TK-10 renal): > 100 µM
GI50 (UACC-257 melanoma): > 100 µM
TGI (UACC-257 melanoma): > 100 µM
GI50 (UACC-62 melanoma): 25.5 µM
TGI (UACC-62 melanoma): > 100 µM
GI50 (UO-31 renal): > 100 µM
TGI (UO-31 renal): > 100 µM
